These molecules were tested against T1, JAK3 (JH1 and JH2 domain) (Homo sapiens, UniProt P52333) (assay: JAK3 Kinase Assay (ELISA of peptide substrate phosphorylation)). Conditions: purified JAK3 enzyme, 10 μM ATP, biotinylated peptide substrate, 1 hour at room temperature.
T1 sequence (P52333 521-1111 limits assumed): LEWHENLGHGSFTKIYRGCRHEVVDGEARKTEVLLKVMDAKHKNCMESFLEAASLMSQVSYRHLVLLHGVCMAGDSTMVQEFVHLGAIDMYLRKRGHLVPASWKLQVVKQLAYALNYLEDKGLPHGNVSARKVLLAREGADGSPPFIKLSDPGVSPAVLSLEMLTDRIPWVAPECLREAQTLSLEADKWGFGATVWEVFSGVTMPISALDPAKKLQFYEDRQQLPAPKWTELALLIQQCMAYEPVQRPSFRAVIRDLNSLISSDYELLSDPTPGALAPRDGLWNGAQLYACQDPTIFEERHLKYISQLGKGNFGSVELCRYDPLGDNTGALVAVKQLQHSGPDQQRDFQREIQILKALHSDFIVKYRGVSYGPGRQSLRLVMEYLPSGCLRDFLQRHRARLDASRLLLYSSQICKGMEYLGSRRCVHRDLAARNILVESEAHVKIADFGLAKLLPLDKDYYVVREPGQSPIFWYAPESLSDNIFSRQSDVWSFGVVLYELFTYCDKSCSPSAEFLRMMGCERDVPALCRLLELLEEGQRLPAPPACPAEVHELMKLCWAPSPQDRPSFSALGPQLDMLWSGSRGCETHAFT
Assay type: biochemical
Method in brief: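 Sf21-baculovirus-expressed JAK3 (JH1+JH2), glutathione-bead purified, with biotinylated peptide substrate (in buffer containing 10 μM ATP) in HEPES pH 7.5/MgCl2/DTT, 1 h RT. Product was captured on Neutravidin, detected with HRP anti-phosphotyrosine (PY99)/TMB, OD 450/650 nm. Triplicate 16-point half-log series from 200 μM gave IC50; otherwise % inhibition at 1 μM.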

SMILES | IC50 [µM]
CN(C)CCCNC(=O)OC1CCn2c3ccccc3c3c4c(c5c6ccccc6n(c5c32)CC1)C(=O)NC4 (stereo not drawn) [Cpd 186, 12,13-{3-[(3-dimethylamino-prop-1-yl)carbamoyloxy]-pentan-1,5-yl}-6,7,12,13-tetrahydro-5-oxo-5H-indolo[2,3-a]pyrrolo[3,4-c]carbazole] | 0.178
O=C(NC1CCN(Cc2ccccc2)CC1)OC1CCn2c3ccccc3c3c4c(c5c6ccccc6n(c5c32)CC1)C(=O)NC4 (stereo not drawn) [Cpd 187, 12,13-{3-[(1-benzyl-piperidin-4-yl)carbamoyloxy]-pentan-1,5-yl}-6,7,12,13-tetrahydro-5-oxo-5H-indolo[2,3-a]pyrrolo[3,4-c]carbazole] | 3
O=C1NCc2c1c1c3cc(Br)ccc3n3c1c1c2c2ccccc2n1CC(O)C(O)C3 (stereo not drawn) [Cpd 188, 3-bromo-12,13-(2,3-dihydroxy-butan-1,4-yl)-6,7,12,13-tetrahydro-5-oxo-5H-indolo[2,3-a]pyrrolo[3,4-c]carbazole] | 0.034
O=C1NCc2c1c1c3cc(O)ccc3n3c1c1c2c2ccccc2n1CC(O)C(O)C3 (stereo not drawn) [Cpd 189, 3-hydroxy-12,13-(2,3-dihydroxy-butan-1,4-yl)-6,7,12,13-tetrahydro-5-oxo-5H-indolo[2,3-a]pyrrolo[3,4-c]carbazole] | 0.003
O=C1NCc2c1c1c3cc([N+](=O)[O-])ccc3n3c1c1c2c2ccccc2n1CC(O)C(O)C3 (stereo not drawn) [Cpd 191, 3-nitro-12,13-(2,3-dihydroxy-butan-1,4-yl)-6,7,12,13-tetrahydro-5-oxo-5H-indolo[2,3-a]pyrrolo[3,4-c]carbazole] | 0.115
Nc1ccc2c(c1)c1c3c(c4c5ccccc5n5c4c1n2CC(O)C(O)C5)CNC3=O (stereo not drawn) [Cpd 192, 3-amino-12,13-(2,3-dihydroxy-butan-1,4-yl)-6,7,12,13-tetrahydro-5-oxo-5H-indolo[2,3-a]pyrrolo[3,4-c]carbazole] | 0.007
CN1CCN(Cc2ccc3c(c2)c2c4c(c5c6ccccc6n6c5c2n3CC(O)C(O)C6)CNC4=O)CC1 (stereo not drawn) [Cpd 193, 3-(4-methyl-piperazin-1-ylmethyl)-12,13-(2,3-dihydroxy-butan-1,4-yl)-6,7,12,13-tetrahydro-5-oxo-5H-indolo[2,3-a]pyrrolo[3,4-c]carbazole] | 0.135
O=C1NCc2c1c1c3cc(CN4CCOCC4)ccc3n3c1c1c2c2ccccc2n1CC(O)C(O)C3 (stereo not drawn) [Cpd 194, 3-(morpholin-4-ylmethyl)-12,13-(2,3-dihydroxy-butan-1,4-yl)-6,7,12,13-tetrahydro-5-oxo-5H-indolo[2,3-a]pyrrolo[3,4-c]carbazole] | 0.503
CN1CCC(NCc2ccc3c(c2)c2c4c(c5c6ccccc6n6c5c2n3CC(O)C(O)C6)CNC4=O)CC1 (stereo not drawn) [Cpd 195, 3-[(1-methyl-piperidin-4-yl)aminomethyl]-12,13-(2,3-dihydroxy-butan-1,4-yl)-6,7,12,13-tetrahydro-5-oxo-5H-indolo[2,3-a]pyrrolo[3,4-c]carbazole] | 0.284
CN1CCC(N(C)Cc2ccc3c(c2)c2c4c(c5c6ccccc6n6c5c2n3CC(O)C(O)C6)CNC4=O)CC1 (stereo not drawn) [Cpd 196, 3-{[N-methyl-N-(1-methyl-piperidin-4-yl)]aminomethyl}-12,13-(2,3-dihydroxy-butan-1,4-yl)-6,7,12,13-tetrahydro-5-oxo-5H-indolo[2,3-a]pyrrolo[3,4-c]carbazole] | ~1
CN1CCN(CCCNCc2ccc3c(c2)c2c4c(c5c6ccccc6n6c5c2n3CC(O)C(O)C6)CNC4=O)CC1 (stereo not drawn) [Cpd 197, 3-{[3-(4-methyl-piperazin-1-yl)prop-1-yl]aminomethyl}-12,13-(2,3-dihydroxy-butan-1,4-yl)-6,7,12,13-tetrahydro-5-oxo-5H-indolo[2,3-a]pyrrolo[3,4-c]carbazole] | 0.693
COCCNCc1ccc2c(c1)c1c3c(c4c5ccccc5n5c4c1n2CC(O)C(O)C5)CNC3=O (stereo not drawn) [Cpd 198, 3-[(2-methoxy-ethyl)aminomethyl]-12,13-(2,3-dihydroxy-butan-1,4-yl)-6,7,12,13-tetrahydro-5-oxo-5H-indolo[2,3-a]pyrrolo[3,4-c]carbazole] | 0.351

Reference: patent US20070249590A1, “Substituted indolo[2,3-a]pyrrolo[3,4-c]carbazole compounds useful in treating kinase disorders” (priority 2005, published 2007)
